Experimental data as given in article PMC9652372, “Glycolytic flux control by drugging phosphoglycolate phosphatase” (Nature Communications, 2022).
Where a chain is given by its changes, count along the chain named. Where “and” joins values, the source holds several entries; their conditions need not be identical. Equal values may be shown once. Entries after “also recorded” stand apart in the source; their conditions may differ.

Columns and labels:
murine PGP [1] = target: T1, murine PGP (Mus musculus, UniProt Q8CHP8); assay: IC50 determination, murine PGP, 2-phospho-L-lactate (2PL) dephosphorylation; details: for M.m PGP on 2- Phospho-L-lactate: activity, control = 100
T1 sequence (Q8CHP8 1-321): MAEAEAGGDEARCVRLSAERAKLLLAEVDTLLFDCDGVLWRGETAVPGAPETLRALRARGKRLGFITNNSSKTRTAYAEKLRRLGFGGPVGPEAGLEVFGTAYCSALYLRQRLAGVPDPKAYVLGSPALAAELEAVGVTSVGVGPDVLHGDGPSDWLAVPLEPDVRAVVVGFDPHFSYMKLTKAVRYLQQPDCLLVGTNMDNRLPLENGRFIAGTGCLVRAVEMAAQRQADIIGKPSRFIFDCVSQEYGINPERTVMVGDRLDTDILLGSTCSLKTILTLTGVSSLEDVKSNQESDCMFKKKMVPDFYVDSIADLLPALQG

HT1080 cells [2] = assay: Cell viability assay (AquaBluer); type: cell-based, human
Procedure: Cell viability was assessed using AquaBluer according to the manufacturer’s recommendations (MultiTarget Pharmaceuticals, LLC). Fluorescence (excitation: 540 nm; emission: 590 nm) was analyzed on a Clariostar microplater reader.

murine PGP [3] = target: T1, murine PGP; assay: IC50 determination, murine PGP, glycerol 3-phosphate (G3P) dephosphorylation (EnzChek)
PGP^P127E = target: T2, PGP^P127E (Mus musculus, UniProt Q8CHP8, P127E); details: read-out: enzyme activity in presence of CP1 relative to DMSO control (1), mPGP-P127E
T2 sequence (Q8CHP8 1-321 P127E): T1 sequence (Q8CHP8 1-321) with P127E

[4] = target: T3, murine PGP-WT / PGP-C297S (Mus musculus, UniProt Q8CHP8); assay: Size-exclusion chromatography, PGP self-association; details: SEC, PGP-WT 30 µM; CP1 100 µM
T3 construct: His6 (N, cleaved yes); made in house; host or cells: Escherichia coli BL21 (DE3)
T3 sequence (Q8CHP8 1-321): T1 sequence (Q8CHP8 1-321)
Procedure: (§1) A volume of 900 µL was loaded onto a Superdex 200 10/300GL (Cytiva) size exclusion chromatography column operated on an ÄKTA liquid chromatography system.
(§2) Error bars not shown are hidden by the symbols. (c) PGP self-association in the absence or presence of CP1. Size- exclusion chromatography (SEC) of purified, recombinant murine PGP-WT in comparison to PGP-C297 […]
(§3) (1 picture or pasted object on this page, not shown here)
(§4) (100 µM). SEC profiles of PGP -WT are the mean of n=3 independent experiments; PGP -C297S […]
(§5) independent experiments. Statistical testing was done using a two-sided t-test, and the p- value

[5] = target: T4, murine PGP-WT / PGP-C297S (Mus musculus, UniProt Q8CHP8, C297S); assay: as above; details: SEC; 100 µM CP1
T4 construct: His6 (N, cleaved yes); made in house; host or cells: Escherichia coli BL21 (DE3)
T4 sequence (Q8CHP8 1-321 C297S): T1 sequence (Q8CHP8 1-321) with C297S
Procedure: as §1, §2, §3, §4, §5

murine PGP-P127E = target: T5, murine PGP-P127E (Mus musculus, UniProt Q8CHP8, P127E); assay: Isothermal titration calorimetry, PGP-P127E; type: binding; details: ITC
T5 construct: His6 (N, cleaved yes); made in house; host or cells: Escherichia coli BL21 (DE3), pETM-11
T5 sequence (Q8CHP8 1-321 P127E): T1 sequence (Q8CHP8 1-321) with P127E
Procedure: Purified murine PGP-WT or PGP-P127E was dialyzed overnight against ITC buffer (30 mM HEPES, 30 mM NaCl, 5 mM MgCl2, 1 mM tris(2-carboxyethyl)phosphine/TCEP; pH 7.5). All calorimetric measurements were performed at 25 °C on an ITC200 microcalorimeter (GE Healthcare). Experiments were conducted with a fixed concentration of 2% DMSO. […] To reduce the effects of ligand leakage from the syringe during baseline equilibration, the heat release of a single 1.2 μL injection was recorded prior to the actual titration experiment, and discarded during data analysis with Nitpic 2.0.7[45]. To determine background heats of dilution, control experiments of ligand into buffer, buffer into protein and buffer into buffer titrations were performed.

HT1080 cells [6] = assay: Lipid droplet staining (perilipin-3); type: cell-based, human
Procedure: Cells were fixed for 15 min with 4% para-formaldehyde, permeabilized and blocked with 0.2% saponin/2% bovine serum albumin (BSA) for 1 hr, and immunostained for 1 hr using α-rabbit TIP47/perilipin 3 antibodies (1:100 dilution, abcam #47638) in 0.2% saponin/1% BSA. Primary antibodies were detected with Alexa Fluor 488-labeled goat anti-rabbit secondary antibodies (1:400; Molecular Probes/Thermo Fisher Scientific), and nuclei were counterstained with DAPI. Cells were mounted with Immu-Mount (Fisher Scientific), and imaged by fluorescence microscopy on a THUNDER imager (THUNDER Imager Live Cell & 3D Cell Culture & 3D Assay system, Leica DMI8; Leica Microsystems), using a 63 × objective and the Leica Application suite X software 3.7.4.23463. To determine the number of lipid droplets per cell, cell borders were defined semi-automatically, and bright objects in this region of interest were counted using the ImagePro-Plus software version 7.0. Statistical significance was assessed using GraphPad Prism 9.4.1 software.

O=C(Nc1ccccc1C(=O)O)c1ccc(Oc2ccc(C(=O)Nc3ccccc3C(=O)O)cc2)cc1 [CP1]
IC50 (murine PGP [1]): 0.31 ± 0.03 µM | M.m PGP on 2- Phospho-L-lactate (murine PGP [1]; CP1 log[M] -5.04576): 4.1667 and 4.9853 and 5.6548 | M.m PGP on 2- Phospho-L-lactate (murine PGP [1]; CP1 log[M] -5.52288): 7.7778 and 8.7977 and 9.2262 | M.m PGP on 2- Phospho-L-lactate (murine PGP [1]; CP1 log[M] -6): 23.0556 and 24.9267 and 23.8095 | M.m PGP on 2- Phospho-L-lactate (murine PGP [1]; CP1 log[M] -6.47712): 45.5556 and 51.3196 and 45.8333 | M.m PGP on 2- Phospho-L-lactate (murine PGP [1]; CP1 log[M] -6.95424): 73.3333 and 81.2317 and 78.869 | M.m PGP on 2- Phospho-L-lactate (murine PGP [1]; CP1 log[M] -7.43136): 88.6111 and 95.3079 and 85.7143 | M.m PGP on 2- Phospho-L-lactate (murine PGP [1]; CP1 log[M] -7.90849): 96.3889 and 100.293 and 92.8571 | fluorescence intensity (HT1080 cells [2]; CP1 10µM): 73536.5 arbitrary units and 54985.5 arbitrary units and 58790.8 arbitrary units | fluorescence intensity (HT1080 cells [2]; CP1 33 µM): 67669 arbitrary units and 60068 arbitrary units and 61386.5 arbitrary units | fluorescence intensity (HT1080 cells [2]; CP1 100 µM): 68775 arbitrary units and 63101.8 arbitrary units and 70832.2 arbitrary units | fluorescence intensity (HT1080 cells [2]; CP1 200 µM): 68392.2 arbitrary units and 53769.5 arbitrary units | cytotoxicity (HT1080 cells [2]; HT1080 cells, 100 µM, 24 h): not cytotoxic | IC50 (murine PGP [3]): 1.04 ± 0.08 µM | remaining activity at 8 µM (murine PGP [3]; read-out: M.m PGP on G3P, activity, control = 100, CP1 log[M] -5.09691): 13.8% | remaining activity at 4 µM (murine PGP [3]; read-out: M.m PGP on G3P, activity, control = 100, CP1 log[M] -5.39794): 19.5% | remaining activity at 2 µM (murine PGP [3]; read-out: M.m PGP on G3P, activity, control = 100, CP1 log[M] -5.69897): 32.5% | remaining activity at 1 µM (murine PGP [3]; read-out: M.m PGP on G3P, activity, control = 100, CP1 log[M] -6): 53.8% | remaining activity at 0.5 µM (murine PGP [3]; read-out: M.m PGP on G3P, activity, control = 100, CP1 log[M] -6.30103): 80% | remaining activity at […] (murine PGP [3]; read-out: M.m PGP on G3P, activity, control = 100, CP1 log[M] -6.60206): 91.2% | remaining activity at 0.125 µM (murine PGP [3]; read-out: M.m PGP on G3P, activity, control = 100, CP1 log[M] -6.90309): 96.2% | remaining activity at 0.0625 µM (murine PGP [3]; read-out: M.m PGP on G3P, activity, control = 100, CP1 log[M] -7.20412): 98.8% | remaining activity at 0.03125 µM (murine PGP [3]; read-out: M.m PGP on G3P, activity, control = 100, CP1 log[M] -7.50515): 91.2% | remaining activity at 32.36 µM (PGP^P127E; CP1 log[M] -4.49, Exp #1-#3): 15% | remaining activity at 15.85 µM (PGP^P127E; CP1 log[M] -4.80, Exp #1-#3): 27% | remaining activity at 7.943 µM (PGP^P127E; CP1 log[M] -5.10, Exp #1-#3): 45% | remaining activity at 3.981 µM (PGP^P127E; CP1 log[M] -5.40, Exp #1-#3): 64% | remaining activity at 1.995 µM (PGP^P127E; CP1 log[M] -5.70, Exp #1-#3): 80% | remaining activity at 1 µM (PGP^P127E; CP1 log[M] -6.00, Exp #2-#3): 85% | remaining activity at 0.5012 µM (PGP^P127E; CP1 log[M] -6.30, Exp #1-#3): 81% | remaining activity at 0.2512 µM (PGP^P127E; CP1 log[M] -6.60, Exp #1-#3): 94% | remaining activity at 0.1259 µM (PGP^P127E; CP1 log[M] -6.90, Exp #1-#3): 92% | max. peak height of PGP tetramer/PGP total [4]: 0.166 and 0.138 and 0.1887 | effect on PGP^C297S self-association [5]: did not affect | n, stoichiometry (murine PGP-P127E): 1.15 ± 0.04 | Kd (murine PGP-P127E; […]): 11.9 ± 0.41 µM | lipid droplet (LD) accumulation (HT1080 cells [6]): time- and concentration-dependent accumulation of LDs; also recorded: effectively increased LDs in PGP-WT but not in PGP-KO cells
